Each block holds one compound with its values, some of them ahead of it.
Assays:
Aurora-A = biological target: T1, Aurora-A (Homo sapiens, UniProt O14965); experiment: Aurora kinase activity assay (Caliper mobility shift), Aurora A; type: biochemical; settings: for IC50: recombinant Aurora kinase, FAM labeled peptide substrate
T1 sequence (O14965 1-403): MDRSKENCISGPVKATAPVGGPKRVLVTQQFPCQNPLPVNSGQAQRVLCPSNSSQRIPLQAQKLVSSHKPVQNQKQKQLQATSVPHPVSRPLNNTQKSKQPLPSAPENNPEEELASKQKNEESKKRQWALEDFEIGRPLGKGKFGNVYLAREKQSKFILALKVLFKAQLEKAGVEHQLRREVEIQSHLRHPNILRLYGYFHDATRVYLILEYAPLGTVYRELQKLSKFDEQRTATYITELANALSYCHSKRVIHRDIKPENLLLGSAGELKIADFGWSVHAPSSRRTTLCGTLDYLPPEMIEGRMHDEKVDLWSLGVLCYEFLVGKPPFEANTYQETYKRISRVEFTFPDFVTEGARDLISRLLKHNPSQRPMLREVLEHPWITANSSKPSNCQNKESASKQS
Method: (§1) The Caliper mobility shift assay was used to measure compound activity towards aurora kinase. 10 different concentrations of compounds were prepared by three-fold serial dilutions. Recombinant Aurora kinases in kinase buffer (20 mM HEPES, pH 7.5, 0.01% Triton X-100) were incubated with compounds for 10 minutes at room temperature. FAM labeled peptide substrates were subsequently added to initiate the reaction at 25° C. Conversion rates were measured by caliper after the reactions were terminated. […] Data were normalized to that of the vehicle control, and percentage of inhibition and IC50 were calculated.

Aurora-B = Aurora-B (Homo sapiens, UniProt Q96GD4); experiment: Aurora kinase activity assay (Caliper mobility shift), Aurora B; type: biochemical; settings: recombinant Aurora kinase, FAM labeled peptide substrate
Method: as §1

H1975 cells = experiment: H1975 proliferation assay; type: cell-based; settings: Homo sapiens, NCI-H1975; 72 hours incubation, cell survival through ATP quantification
Method: Cells were allowed to attach overnight and compounds were added to the cells for a further incubation of 72 hours. […] of CTL was added afterwards to measure cell survival through ATP quantification.

H1975 xenograft = experiment: In vivo anti-tumor growth in H1975 mouse xenografts; set-up: species or system nude mice
Method: (§2) Cells were passaged and harvested by trypsinization. 8×10^6 cells were implanted in the left armpit of nude mice. […] Tumor volume and body weight were monitored every other day. Mice were sacrificed on day 21 of treatment. Relative tumor volume (RTV) and tumor growth (T/C), and tumor growth inhibition (TGI) were calculated and analyzed.

H69 xenograft = experiment: In vivo anti-tumor growth in H69 mouse xenografts; set-up: species or system nude mouse; settings: for RTV (relative tumor volume, Vt/V0) / T/C / TGI (%) / Body weight (g) D1 / Tumor volume (mm^3) D1 / Body weight (g) D21 / Tumor volume (mm^3) D21: H69 xenograft, bid*21, oral; for Body weight (g) D1 / Tumor volume (mm^3) D1: D1 first day of treatment; for Body weight (g) D21 / Tumor volume (mm^3) D21: D21 last day of treatment
Method: as §2, with “1×10^7 H69” for “8×10^6”, “mouse.” for “mice.”, “measured” for “monitored”, “analyzed statistically.” for “analyzed.”

[1] = Dosage 60, qd*21, oral gavage, D1 first day of treatment
[2] = Dosage 60, qd*21, oral gavage, D21 last day of treatment

Chain of Aurora-B (Q96GD4 whole entry): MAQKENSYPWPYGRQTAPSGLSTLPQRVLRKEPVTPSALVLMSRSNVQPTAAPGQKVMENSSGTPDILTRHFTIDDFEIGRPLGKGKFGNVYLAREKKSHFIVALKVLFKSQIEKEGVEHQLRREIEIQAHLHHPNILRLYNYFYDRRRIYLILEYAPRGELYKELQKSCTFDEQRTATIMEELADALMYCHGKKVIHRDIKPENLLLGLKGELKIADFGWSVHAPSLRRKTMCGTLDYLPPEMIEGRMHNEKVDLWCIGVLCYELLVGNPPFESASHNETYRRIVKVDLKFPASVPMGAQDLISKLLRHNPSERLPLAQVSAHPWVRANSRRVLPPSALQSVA

SMILES: Cc1cc(Nc2ccc(F)c(CC3(C(=O)O)CCN(C(=O)c4cccc(Cl)c4F)C(C)C3)n2)n[nH]1 (stereo not shown) [Compound 22, 1-(3-chloro-2-fluorobenzoyl)-4-((3-fluoro-6-((5-methyl-1H-pyrazol-3-yl)amino)pyridin-2-yl)methyl)-2-methylpiperidine-4-carboxylic acid]
IC50 (Aurora-A): 1.21 nM | IC50 (Aurora-B): 1140 nM | IC50 (H1975 cells): 155 nM

SMILES: CC1CC(Cc2nc(Nc3nccs3)ccc2F)(C(=O)O)CCN1Cc1cccc2c1OC(F)(F)O2 (stereo not shown) [Compound 7, 1-((2,2-difluorobenzo[d][1,3]dioxol-4-yl)methyl)-4-((3-fluoro-6-(thiazol-2-ylamino)pyridin-2-yl)methyl)-2-methylpiperidine-4-carboxylic acid]
IC50 (Aurora-A): 1.1 nM | IC50 (Aurora-B): 822 nM | IC50 (H1975 cells): 99 nM

SMILES: [2H]C([2H])(c1cccc(Cl)c1F)N1CCC(Cc2nc(Nc3nccs3)ccc2F)(C(=O)O)CC1C (stereo not shown) [Compound 13, 1-((3-chloro-2-fluorophenyl)methyl-d2)-4-((3-fluoro-6-(thiazol-2-ylamino)pyridin-2-yl)methyl)-2-methylpiperidine-4-carboxylic acid]
IC50 (Aurora-A): 0.74 nM | IC50 (Aurora-B): 15 nM | IC50 (H1975 cells): 25 nM | RTV (relative tumor volume, Vt/V0) (H1975 xenograft; Dosage 60, qd*21, oral gavage): 4.72 | TGI (%) (H1975 xenograft; Dosage 60, qd*21, oral gavage): 81.07% | Body weight (g) D1 (H1975 xenograft; [1]): 17.82 g | Tumor volume (mm^3) D1 (H1975 xenograft; [1]): 82.50 mm^3 | Body weight (g) D21 (H1975 xenograft; [2]): 19.00 g | Tumor volume (mm^3) D21 (H1975 xenograft; [2]): 373.74 mm^3 | T/C (H1975 xenograft; Dosage 60, qd*21, oral gavage, TRTV/CRTV × 100): 24.11% | activity in vivo in words (comment on Table 3) (H1975 xenograft; compared with LY-3295668): shows greater activity in vivo

SMILES: CC1(C)CC(Cc2nc(Nc3nccs3)ccc2F)(C(=O)O)CCN1Cc1cccc(Cl)c1F (stereo not shown) [Compound 20, 1-(3-chloro-2-fluorobenzyl)-4-((3-fluoro-6-(thiazol-2-ylamino)pyridin-2-yl)methyl)-2,2-dimethylpiperidine-4-carboxylic acid]
IC50 (Aurora-A): 1.42 nM | IC50 (Aurora-B): 435 nM | IC50 (H1975 cells): 156 nM

SMILES: CC1CC(Cc2nc(Nc3nccs3)ccc2F)(C(=O)O)CCN1C(C)c1cccc(Cl)c1F (stereo not shown) [Compound 9, 1-(1-(3-chloro-2-fluorophenyl)ethyl)-4-((3-fluoro-6-(thiazol-2-ylamino)pyridin-2-yl)methyl)-2-methylpiperidine-4-carboxylic acid]
IC50 (Aurora-A): 0.98 nM | IC50 (Aurora-B): 126 nM | IC50 (H1975 cells): 81 nM

Continued, in another order:

IC50 (Aurora-A): 0.73 nM | IC50 (Aurora-B): 321 nM
SMILES: CC1CC(Cc2nc(Nc3nccs3)ccc2F)(C(=O)O)CCN1Cc1ccnc(Cl)c1F (stereo not shown) [Compound 3, 1-((2-chloro-3-fluoropyridin-4-yl)methyl)-4-((3-fluoro-6-(thiazol-2-ylamino)pyridin-2-yl)methyl)-2-methylpiperidine-4-carboxylic acid]
IC50 (H1975 cells): 195 nM

IC50 (Aurora-A): 0.4 nM | potency in words (comment on Table 2) (Aurora-A; towards Aurora-A, Aurora-B and H1975): more potent than its racemic mixture | IC50 (Aurora-B): 16 nM
SMILES: C[C@@H]1C[C@](Cc2nc(Nc3nccs3)ccc2F)(C(=O)O)CCN1Cc1cccc(Cl)c1F [Compound 1-1, (2R,4R)-1-(3-chloro-2-fluorobenzyl)-4-((3-fluoro-6-(thiazol-2-ylamino)pyridin-2-yl)methyl)-2-methylpiperidine-4-carboxylic acid]
IC50 (H1975 cells): 12 nM | H69 tumor growth in words (comment on Table 4) (H69 xenograft; 2.5, 5 and 10 mg/kg twice daily, compared to LY-3295668): blocks H69 tumor growth in a dose dependent manner with markedly improved efficacy compared to LY-3295668 | RTV (relative tumor volume, Vt/V0) (H69 xenograft; 2.5 mg/kg): 0.65 | T/C (H69 xenograft; 2.5 mg/kg): 20% | TGI (%) (H69 xenograft; 2.5 mg/kg): 111.16% | Body weight (g) D1 (H69 xenograft; 2.5 mg/kg): 15.99 g | Tumor volume (mm^3) D1 (H69 xenograft; 2.5 mg/kg): 287.46 mm^3 | Body weight (g) D21 (H69 xenograft; 2.5 mg/kg): 16.73 g | Tumor volume (mm^3) D21 (H69 xenograft; 2.5 mg/kg): 180.58 mm^3 | RTV (relative tumor volume, Vt/V0) (H69 xenograft; 5 mg/kg): 0.33 | T/C (H69 xenograft; 5 mg/kg): 10% | TGI (%) (H69 xenograft; 5 mg/kg): 120.31% | Body weight (g) D1 (H69 xenograft; 5 mg/kg): 15.91 g | Tumor volume (mm^3) D1 (H69 xenograft; 5 mg/kg): 284.84 mm^3 | Body weight (g) D21 (H69 xenograft; 5 mg/kg): 16.01 g | Tumor volume (mm^3) D21 (H69 xenograft; 5 mg/kg): 90.43 mm^3 | RTV (relative tumor volume, Vt/V0) (H69 xenograft; 10 mg/kg): 0.37 | T/C (H69 xenograft; 10 mg/kg): 11% | TGI (%) (H69 xenograft; 10 mg/kg): 120.34% | Body weight (g) D1 (H69 xenograft; 10 mg/kg): 16.16 g | Tumor volume (mm^3) D1 (H69 xenograft; 10 mg/kg): 287.92 mm^3 | Body weight (g) D21 (H69 xenograft; 10 mg/kg): 16.19 g | Tumor volume (mm^3) D21 (H69 xenograft; 10 mg/kg): 93.16 mm^3

IC50 (Aurora-A): 0.64 nM | IC50 (Aurora-B): 20 nM
SMILES: CC1CC(Cc2nc(Nc3nccs3)ccc2F)(C(=O)O)CCN1Cc1cccc(Cl)c1F (racemic) [Compound 1, 1-(3-chloro-2-fluorobenzyl)-4-((3-fluoro-6-(thiazol-2-ylamino)pyridin-2-yl)methyl)-2-methylpiperidine-4-carboxylic acid]
IC50 (H1975 cells): 22 nM
